Read-outs that look alike come from different tables or passages of the source.

The nature of the experiment: adjuvant arthritis screen (Walz et al.), swelling of the non-injected left hind foot on Day 16. The experiment is classed as in vivo, male inbred Lewis rats. The conditions noted are these: Rattus norvegicus, 384 h, daily day -1 through day 15, read-out: Activity Percent Inhibition; for inhibition in vivo at 20 mg/kg: 20 mg./kg. po. The source says: The adjuvant arthritis test described by Walz et al., Ann. Rheum. Dis., 30, 303 (1971) was selected as the method of choice for the determination of the extent of which the novel compounds of the present invention are therapeutically effective as anti-inflammatory agents. Adjuvant arthritis is a crippling deformity in rats resulting from diffuse connective tissue involvement. It is considered by some authorities to be the best available experimental animal model of human rheumatoid arthritis because of its strong clinical and pathological similarities to the human disease and because it can be effectively treated with known anti-arthritic drugs. In this test, lesions resembling those of human rheumatoid arthritis are induced by the injection of complete Freund's adjuvant into one hind leg of a rat. A vigorous inflammatory response occurs in the injected hind leg and reaches its greatest size in about four days. This primary response is followed by the development of a second inflammatory response, appearing about 12-16 days post-injection, that occurs in the uninjected hind leg. While the compounds of the invention are capable of inhibiting the degree of inflammation in both legs, the inhibition of swelling in the uninjected leg at 16 days is considered to be the more meaningful measure of antiarthritic activity.
The adjuvant arthritis screen as described by Walz et al. (Ann. Rheum. Dis., 30: 303 (1971), was used to evaluate the above prepared compounds.
The screen is conducted using male inbred Lewis rats weighing approximately 250 gm. The animals are dosed with drug beginning on day- 1 and continuing daily through day 15. On Day 0, the subplanter surface of the right hind paw is injected with 0.1cc of a 1% suspension of Mycobacterium butyricum (Freunds adjuvant) in Primol (Esso). The swelling of the non-injected left hind foot on Day 16, resulting from immune response to adjuvant, was determined for dosed animals and controls. The foot volume is measured by immersing the paw to the anatomical hairline into a mercury reservoir which is connected to a Statham pressure transducer and a recording device. The results are expressed as % inhibition calculated according to the following equation: [formula] The results obtained are as follows for [drawing 22] where Z is --N(CH3)2 and X is carbon: […]

For `COCC(=O)Nc1nc2ccccc2n1CCCN(C)C` [CH3 OCH2; H; H; Z = N(CH3)2], the inhibition in vivo at 33 mg/kg (33 mg./kg. ip) is 32%. `CN1CCN(CCCn2c(NC(=O)c3cccc(Cl)c3)nc3cc(S(=O)(=O)N(C)C)ccc32)CC1` [3-Chlorophenyl; SO2 N(CH3)2; H; drawing 24, 1-[3-(4-methyl-1-piperazinyl)propyl]-2-(3-chlorobenzamido)-5-(N,N-dimethylsulfonamido)benzimidazole]: the inhibition in vivo at 10 mg/kg (10 mg./kg. po) was 35%. In addition, the inhibition in vivo at 33 mg/kg (33 mg./kg. po) came out at 54%.

Take `CN1CCN(CCCn2c(NC(=O)c3ccc(C(C)(C)C)cc3)nc3ccccc32)CC1` [4-t-Butylphenyl; H; H; drawing 24]: for the setting “33 mg./kg. ip”, the inhibition in vivo at 33 mg/kg worked out at 26%. With `Cc1ccc2c(c1)nc(NC(=O)c1ccc(C(F)(F)F)cc1)n2CCCN1CCN(C)CC1` [4-Trifluoromethylphenyl; CH3; H; drawing 24], the inhibition in vivo at 20 mg/kg was 35%. Consider `CN1CCN(CCCn2c(NC(=O)c3ccc(Cl)c(Cl)c3)nc3ccccc32)CC1` [3,4-Dichlorophenyl; H; H; drawing 24, 1-[3-(4-methyl-1-piperazinyl)propyl]-2-(3,4-dichlorobenzamido)benzimidazole], for which the inhibition in vivo at 10 mg/kg (10 mg./kg. po) is 32%. Further, the inhibition in vivo at 33 mg/kg (33 mg./kg. ip) is 61%. In the case of `O=C(Nc1nc2ccccc2n1CCCN1CCNCC1)c1ccc(C(F)(F)F)cc1` [4-Trifluoromethylphenyl; H; H; drawing 28, 2-(4-trifluoromethylbenzamido)-1-[3-(1-piperazinyl)propyl]benzimidazole], the inhibition in vivo at 10 mg/kg (10 mg./kg. ip) is 28%. With `CN(C)CCCn1c(NC(=O)c2ccccc2)nc2ccccc21` [Phenyl; H; H; Z = N(CH3)2], the inhibition in vivo at 33 mg/kg (33 mg./kg. ip) was 8%. With `CN1CCN(CCCn2c(NC(=O)c3ccc(Cl)cc3)nc3cc(C(F)(F)F)ccc32)CC1` [4-Chlorophenyl; CF3; H; drawing 24], the inhibition in vivo at 33 mg/kg (33 mg./kg. ip) amounted to 47%. For the compound `CN1CCN(CCCn2c(NC(=O)C=Cc3ccc(Cl)cc3)nc3cc(Cl)ccc32)CC1` [4-Chlorostyryl; Cl; H; drawing 24], the inhibition in vivo at 33 mg/kg (33 mg./kg. ip) turned out to be 66%. Turning to `O=C(Nc1nc2ccccc2n1CCCN1CCOCC1)c1cccc(Cl)c1` [3-Chlorophenyl; H; H; drawing 23, 1-[3-(N-morpholino)propyl]-2-(3-chlorobenzamido)benzimidazole], the inhibition in vivo at 100 mg/kg (100 mg./kg. po) turned out to be 32%.

With `O=C(C=Cc1ccccc1)Nc1nc2ccccc2n1CCCN1CCCCC1` [Styryl; H; H; drawing 26], the inhibition in vivo at 33 mg/kg (33 mg./kg. ip) was determined as 33%. As to `CN(C)CCCn1c(NC(=O)c2ccc(Cl)c(Cl)c2)nc2ccccc21` [3,4-Dichlorophenyl; H; H; Z = N(CH3)2], under “10 mg./kg. po”, the inhibition in vivo at 10 mg/kg is 13%. Moreover, where the note is “33 mg./kg. ip”, the inhibition in vivo at 33 mg/kg came out at 67%. `O=C(Nc1nc2ccccc2n1CCCN1CCCCC1)c1ccc(Cl)c(Cl)c1` [3,4-Dichlorophenyl; H; H; drawing 26]: the inhibition in vivo at 33 mg/kg (33 mg./kg. ip) is 25%.

As for `COc1cccc(C(=O)Nc2nc3cc(C(F)(F)F)ccc3n2CCCN2CCN(C)CC2)c1` [3-Methoxyphenyl; CF3; H; drawing 24], for the setting “33 mg./kg. ip”, the inhibition in vivo at 33 mg/kg was 46%. On to `Cc1cccc(C(=O)Nc2nc3ccccc3n2CCCN2CCN(C)CC2)c1` [3-Methylphenyl; H; H; drawing 24], for which, under “33 mg./kg. ip”, the inhibition in vivo at 33 mg/kg is 39%. For `COc1ccc2c(c1)nc(NC(=O)c1cccc(Cl)c1)n2CCCN1CCN(C)CC1` [3-Chlorophenyl; OCH3; H; drawing 24], for the setting “10 mg./kg. po”, the inhibition in vivo at 10 mg/kg is -1%. Moreover, under “33 mg./kg. ip”, the inhibition in vivo at 33 mg/kg was 59%. `Cc1cc2nc(NC(=O)c3ccccc3)n(CCCN3CCN(C)CC3)c2cc1C` [Phenyl; CH3; CH3; drawing 24, 1-[3-(4-methyl-1-piperazinyl)propyl]-2-benzamido-5,6-dimethylbenzimidazole]: the inhibition in vivo at 20 mg/kg was 31%. For the compound `COc1ccc(C(=O)Nc2nc3ccccc3n2CCCN2CCOCC2)cc1` [4-Methoxyphenyl; H; H; drawing 23], where the note is “33 mg./kg. ip”, the inhibition in vivo at 33 mg/kg was 54%. Still for that read-out and setting: with `CN1CCN(CCCn2c(NC(=O)c3cccc(C(F)(F)F)c3)nc3cc(Cl)c(Cl)cc32)CC1` [3-Trifluoromethylphenyl; Cl; Cl; drawing 24] the figure was 74%.

Take `CN1CCN(CCCn2c(NC(=O)c3ccc(Cl)cc3)nc3cccnc32)CC1` [4-Chlorophenyl; H; H; drawing 25]: the inhibition in vivo at 20 mg/kg turned out to be 26%.

Take `CN1CCN(CCCn2c(NC(=O)c3ccc(C(F)(F)F)cc3)nc3ccccc32)CC1` [4-Trifluoromethylphenyl; H; H; drawing 24]: the inhibition in vivo at 20 mg/kg turned out to be 51%. Besides, for the setting “33 mg./kg. ip”, the inhibition in vivo at 33 mg/kg is 77%.

`Cc1cc2nc(NC(=O)c3ccc(Cl)c(Cl)c3)n(CCCN3CCN(C)CC3)c2cc1C` [3,4-Dichlorophenyl; CH3; CH3; drawing 24]: the inhibition in vivo at 20 mg/kg was 18%. For `CN(C)CCCn1c(NC(=O)c2ccccc2Cl)nc2ccccc21` [2-Chlorophenyl; H; H; Z = N(CH3)2], the inhibition in vivo at 33 mg/kg (33 mg./kg. ip) is 15%.

As for `CN1CCN(CCCn2c(NC(=O)c3ccc(Cl)c(Cl)c3)nc3cc(S(=O)(=O)N(C)C)ccc32)CC1`, the inhibition in vivo at 20 mg/kg was 31%. Consider `CN1CCN(CCCn2c(NC(=O)c3cccc(Cl)c3)nc3cc(C(F)(F)F)ccc32)CC1` [3-Chlorophenyl; CF3; H; drawing 24, 1-[3-(4-methyl-1-piperazinyl)propyl]-2-(3-chlorobenzamido)-5-trifluoromethylbenzimidazole], for which the inhibition in vivo at 20 mg/kg amounted to 45%. In addition, the inhibition in vivo at 33 mg/kg (33 mg./kg. ip) worked out at 73%. `Cc1ccc2nc(NC(=O)c3cccc(Cl)c3)n(CCCN3CCN(C)CC3)c2c1` [3-Chlorophenyl; H; CH3; drawing 24]: the inhibition in vivo at 10 mg/kg (10 mg./kg. po) was -5%. In addition, the inhibition in vivo at 33 mg/kg (33 mg./kg. ip) was found to be 66%. Turning to `CN1CCN(CCCn2c(NC(=O)c3ccccc3)nc3cc(S(=O)(=O)N(C)C)ccc32)CC1` [Phenyl; SO2 N(CH3)2; H; drawing 24], the inhibition in vivo at 20 mg/kg is 32%. On to `Cc1cc2nc(NC(=O)c3ccc(Cl)cc3)n(CCCN3CCN(C)CC3)c2cc1C` [4-Chlorophenyl; CH3; CH3; drawing 24], for which the inhibition in vivo at 20 mg/kg was 30%.

For the compound `Cc1cccc(C(=O)Nc2nc3ccccc3n2CCCN(C)C)c1` [3-Methylphenyl; H; H; Z = N(CH3)2], the inhibition in vivo at 33 mg/kg (33 mg./kg. ip) stood at 21%.
